Measurements taken from patent US10793614B2, “Antagonists of fish reproduction” (Yissum Research Development Company of the Hebrew …, priority 2014, dated 2020).
Numbered stars: 1 amine (or outer) side, 2 acyl side, 3 side chain; on linkers, the order of the positions; unused ones are H or OH. Square brackets hold non-standard residues; d marks the D form. Suc = O=C(CCC(=O)[*:2])[*:1]; NMeV = CN[C@H](C(=O)O)C(C)C; βAla = NCCC(=O)O

What was measured:
[1] = test system: Adult male Tilapia; assay: In vivo ip injection of adult male tilapia: testis histology, plasma 11KT; conditions: versus control; for increase of plasma 11KT levels: 500 μg/kg BW ip every 48 h, 0 to 12 days
Method: Adult male Tilapia (BW 90 g) were injected ip with saline and 25% DMSO, SB2222000, or the NKB antagonists Ant-4 (500 μg/kg BW every 48 h for 2 weeks, […]). The fish were bled from the caudal blood vessels into heparinized syringes every 2 days after injection. At days 7 and 14 five fish from each group were bled, striped for sperm volume and gonads were taken for Histology. Plasma was analyzed for LH, FSH and 11KT. Blood samples were collected from the caudal vasculature and centrifuged (3000 rpm for 20 minutes at 4° C.) to obtain plasma samples, which were stored at −20° C. until assayed, ELISAs were performed according to (Aizen et al., 2007, Gen Comp Endocrinol, vol. 153, pp 323-332) for FSH and LH and according to Hurvitz et al., 2005 (Gen Comp Endocrinol 140:61-73) for 11KT 1-ketotestosterone, the main androgen in fish which is involved in spermatogenesis). FIG. 6 represents histological observations of gonads from testes of treated fish versus control fish. Fish testes are organized in cysts. […] From right to left: semen from fish injected with SB222200; semen from control fish; semen from fish injected with NKB-antagonist #4. 11KT is the main androgen in fish and is involved in spermatogenesis.

[2] = test system: Salmon tac3 receptor; assay: CRE-Luc reporter assay in COS-7 cells transfected with salmon tac3r; format: cell-based; conditions: with wild-type NKB at 10^-8 M
Method: Similar to the in-vitro experiments performed in Example 2 in Tilapia and Zebrafish, the inhibition of NKB activity was tested in Salmon fish. Salmon tac3 receptor was cloned in pcDNA3.1 expression vector (Zeo-; Invitrogen) under the control of the CMV promoter. Transfection was carried out with FuGENE 6.0 reagent (Roche). The cells were serum starved for 36 h, stimulated with vehicle or various concentrations of either tilapia NKB for 6 h, and then harvested and analyzed. Lysates prepared from the harvested cells were assayed for both luciferase activity and β-galactosidase activity, which was used as an internal standard to normalize the luciferase activity directed by the test plasmid. Transfection experiments were performed in triplicate with three independently isolated sets. The concentrations of ligand used were from 1 nM to 1 μM. Treatments were performed in quadruplicate in three independent experiments. Each antagonist (NKB-ant 4 and NKB-ant 6) was added at different concentrations with a constant concentration of the wild-type NKB (10^−8M) that gave a response close to the ED50. The results were analyzed by Prism software, according to a non-linear regression one-site competition curve. When salmon tac3 was transfected, NKB increased the luciferase activity by 1.8 fold.

[3] = test system: Tilapia tac3ra and tac3rb; assay: CRE-luciferase reporter assay in COS-7 cells transfected with tilapia tac3 receptor; format: cell-based; conditions: for effect of antagonist alone on luciferase activity (CRE-Luc): no ligand; for inhibition of luciferase activity, antagonist with native ligands: different concentrations added concomitantly with 0.1 nM NKB or NKF
Source text: There are two signal transduction pathways, one is relayed trough cAMP/PKA (protein kinase A), and the second is trough Ca2+/PKC. The PKA pathway is activated by CRE (cAMP response element) and the PKC through SRE ([…] response element).
In order to differentiate between the PKC and PKA signal transduction pathways, a sensitive luciferase (LUC) reporter gene assay was utilized by using the LUC transcriptionally regulated by a serum response element (SRE; Invitrogen) or cyclic AMP (cAMP) response element (CRE; Invitrogen). Tilapia tac3ra and tac3rb (GenBank accession numbers KF471674 and KF471675, respectively) or zebrafish tac3ra and tac3rb (JF317292, and JF317293, respectively) were cloned in pcDNA3.1 expression vector (Zeo-; Invitrogen) under the control of the CMV promoter.
Transient transfection, cell procedures and stimulation protocols were generally according to (Levavi-Sivan et al., 2005, Mol Cell Endocrinol 236:17-30; Biran et al., 2008, ibid, Biran et al., 2012, ibid, Biran et al., 2014 ibid). Briefly, COS-7 cells were grown in DMEM supplemented with 10% FBS, 1% glutamine, 100 U/ml penicillin, and […] streptomycin (Biological Industries) under 5% CO2 until confluent. Cotransfection of either pc-tac3ra, pc-tac3rb (at 3 μg/plate), a reporter plasmid (at 2 μg/plate), and pCM.
Transfection was carried out with FuGENE 6.0 reagent (Roche). The cells were serum starved for 36 h, stimulated with vehicle or various concentrations of either human NKB, tilapia NKB, tilapia NKF, zebrafish NKBa, NKBb or zebrafish NKF for 6 h, and then harvested and analyzed.
Lysates prepared from the harvested cells were assayed for both luciferase activity and β-galactosidase activity, which was used as an internal standard to normalize the luciferase activity directed by the test plasmid, as described previously. Transfection experiments were performed in triplicate with three independently isolated sets.
The concentrations of ligand used were from 1 nM to 1 μM. Treatments were performed in quadruplicate in three independent experiments.
Each antagonist was added at different concentrations with a constant concentration of the wild-type NKB or NKF, at a dose of the ligand (10^−8M) that gave a response close to the ED50. The results were analyzed by Prism software, according to a non-linear regression one-site competition curve.
The effect of NKB antagonists was tested in tilapia when each antagonist was added at different concentration concomitantly with NKB at 10^−8 M ([…]). Tilapia NKB increased the luciferase activity by 1.8 fold. The various antagonists reduced this response by approximately 60% (FIG. 1A). Similar results were obtained using the SRE response (FIG. 1B). […]

[4] = test system: gonadotropin release in tilapia; assay: In vivo gonadotropin (FSH, LH) release in sexually mature tilapia females; conditions: 10, 100 or 500 μg/kg body weight injected; 1, 2, 4, 8 h; starting 1 hour after injection
Method: SB222200 was further tested in vivo for its NKB antagonistic activity on gonadotropin release in tilapia. Sexually mature tilapia females (0.62±0.22%; n=10/treatment) were injected with different doses of the NKB non-peptide antagonist SB222200 (10, 100 or 500 μg/kg body weight) at time 0. 1, 2, 4 and 8 hours after the injection the fish were bled from their caudal vasculature. The levels of the gonadotropins FSH and LH were determined using specific ELISA according to Aizen et al., 2007 (Aizen et al., 2007, Gen Comp Endocrinol, vol. 153, pp 323-332).

[5] = test system: Adult male Tilapia; assay: In vivo growth of injected adult male tilapia; conditions: 500 μg/kg BW ip every 48 h for 2 weeks; day 21, seven days after end of treatment
Method: Adult male tilapia (BW 60 g) were injected ip with saline and 25% DMSO, SB2222000, or NKB antagonists Ant-6 (500 μg/kg BW every 48 h for 2 weeks, n=25 fish per group). Fish were weighed every 7 days.

Row | Compound | increase of plasma 11KT levels [1] | histological observations of testes ([1]; 500 μg/kg BW ip every 48 h for 2 weeks) | reduction of the NKB luciferase response by antagonist [2] | effect of antagonist alone on luciferase activity (CRE-Luc) [3] | inhibition of luciferase activity, antagonist with native ligands [3] | FSH levels [4] | LH levels [4] | growth (body weight) [5]
1 | Succ-Asp-Ile-D-Trp-N(Me)Val-βAla-Leu-Met-NH2 (Suc-DI[dW][NMeV][βAla]LM-NH2; SMILES CC[C@H](C)[C@H](NC(=O)[C@H](CC(=O)O)NC(=O)CCC(=O)O)C(=O)N[C@H](Cc1c[nH]c2ccccc12)C(=O)N(C)[C@H](C(=O)NCCC(=O)N[C@@H](CC(C)C)C(=O)N[C@@H](CCSC)C(N)=O)C(C)C) [Ant-4] | significantly inhibited | more partially empty cysts with mature spermatozoa | approximately 60% |  |  |  |  | 
2 | CC(=O)N(C)C1(c2ccccc2)CCN(CCCC2(c3ccc(Cl)c(Cl)c3)CCCN(C(=O)c3ccccc3)C2)CC1 (stereo in doubt) [Osanetant (SR-142,801), (S)-(1)-N-{{3-[1-benzoyl-3-(3,4-dichlorophenyl)piperidin-3-yl]prop-1-yl}-4-phenylpiperidin-4-yl}-N-methyl acetamide] |  |  |  | no effect | typical inhibition curve |  |  | 
3 | CC[C@H](NC(=O)c1c(C)c(-c2ccccc2)nc2ccccc12)c1ccccc1 [SB222200, (S)-(2)-N-(a-ethylbenzyl)-3-methyl-2-phenylquinoline-4-carboxamide] | significantly inhibited |  |  | no effect | typical inhibition curve | significant gradual decline | significant gradual decline | significant growth
